{"source": "ChEMBL document CHEMBL1697731", "about": "“Cheminformatics analysis of assertions mined from literature that describe drug-induced liver injury in different species” (Chem Res Toxicol, 2010)", "key": {"Hepatotoxicity [1]": {"test_system": "Hepatotoxicity", "test": "Literature-mined compound from Fourches et al multi-species drug-induced liver injury (DILI) dataset, effect in rodents", "conditions": "rodentia"}, "Hepatotoxicity [2]": {"test_system": "Hepatotoxicity", "test": "Literature-mined compound from Fourches et al multi-species drug-induced liver injury (DILI) dataset, effect in humans", "conditions": "human"}, "Hepatotoxicity [3]": {"test_system": "Hepatotoxicity", "test": "Literature-mined compound from Fourches et al multi-species drug-induced liver injury (DILI) dataset, effect in non-rodents"}}}
{"molecule": "LECITHIN", "values": [{"measurement": "Hepatotoxicity", "setting": "Hepatotoxicity [1]", "result": "drug-induced liver injury reported"}, {"measurement": "Hepatotoxicity", "setting": "Hepatotoxicity [2]", "result": "drug-induced liver injury reported"}, {"measurement": "Hepatotoxicity", "setting": "Hepatotoxicity [3]", "result": "no drug-induced liver injury reported"}]}
{"molecule": "CC[C@@]1([C@H]2O[C@H]([C@H]3O[C@@](O)(CO)[C@H](C)C[C@@H]3C)C[C@H]2C)CC[C@H]([C@@]2(C)CC[C@]3(C[C@H](O)[C@@H](C)[C@@H]([C@H](C)[C@H](OC)[C@@H](C)C(=O)[O-])O3)O2)O1.[Na+]", "note": "[MONENSIN SODIUM]", "values": [{"measurement": "Hepatotoxicity", "setting": "Hepatotoxicity [1]", "result": "drug-induced liver injury reported"}, {"measurement": "Hepatotoxicity", "setting": "Hepatotoxicity [2]", "result": "no drug-induced liver injury reported"}, {"measurement": "Hepatotoxicity", "setting": "Hepatotoxicity [3]", "result": "no drug-induced liver injury reported"}]}
{"molecule": "COC1=C2C[C@@H](C)C[C@H](OC)[C@H](O)[C@@H](C)/C=C(\\C)[C@H](OC(N)=O)[C@@H](OC)/C=C\\C=C(/C)C(=O)NC(=CC1=O)C2=O", "note": "[GELDANAMYCIN]", "values": [{"measurement": "Hepatotoxicity", "setting": "Hepatotoxicity [1]", "result": "no drug-induced liver injury reported"}, {"measurement": "Hepatotoxicity", "setting": "Hepatotoxicity [2]", "result": "drug-induced liver injury reported"}, {"measurement": "Hepatotoxicity", "setting": "Hepatotoxicity [3]", "result": "no drug-induced liver injury reported"}]}
{"molecule": "CN(C)c1ccc(O)c2c1C[C@H]1C[C@H]3[C@H](N(C)C)C(O)=C(C(N)=O)C(=O)[C@@]3(O)C(O)=C1C2=O", "note": "[MINOCYCLINE]", "values": [{"measurement": "Hepatotoxicity", "setting": "Hepatotoxicity [1]", "result": "drug-induced liver injury reported"}, {"measurement": "Hepatotoxicity", "setting": "Hepatotoxicity [2]", "result": "drug-induced liver injury reported"}, {"measurement": "Hepatotoxicity", "setting": "Hepatotoxicity [3]", "result": "no drug-induced liver injury reported"}]}
{"molecule": "CHOLESTYRAMINE", "values": [{"measurement": "Hepatotoxicity", "setting": "Hepatotoxicity [1]", "result": "drug-induced liver injury reported"}, {"measurement": "Hepatotoxicity", "setting": "Hepatotoxicity [2]", "result": "drug-induced liver injury reported"}, {"measurement": "Hepatotoxicity", "setting": "Hepatotoxicity [3]", "result": "no drug-induced liver injury reported"}]}
{"molecule": "NC(=O)N/N=C/c1ccc([N+](=O)[O-])o1", "note": "[NITROFURAZONE]", "values": [{"measurement": "Hepatotoxicity", "setting": "Hepatotoxicity [1]", "result": "drug-induced liver injury reported"}, {"measurement": "Hepatotoxicity", "setting": "Hepatotoxicity [2]", "result": "no drug-induced liver injury reported"}, {"measurement": "Hepatotoxicity", "setting": "Hepatotoxicity [3]", "result": "no drug-induced liver injury reported"}]}
{"molecule": "CCCCCCCCCC(=O)O[C@H]1CC[C@H]2[C@@H]3CCC4=CC(=O)CC[C@@H]4[C@H]3CC[C@]12C", "note": "[NANDROLONE DECANOATE]", "values": [{"measurement": "Hepatotoxicity", "setting": "Hepatotoxicity [1]", "result": "drug-induced liver injury reported"}, {"measurement": "Hepatotoxicity", "setting": "Hepatotoxicity [2]", "result": "no drug-induced liver injury reported"}, {"measurement": "Hepatotoxicity", "setting": "Hepatotoxicity [3]", "result": "no drug-induced liver injury reported"}]}
{"molecule": "Sc1ncnc2nc[nH]c12", "note": "[MERCAPTOPURINE ANHYDROUS]", "values": [{"measurement": "Hepatotoxicity", "setting": "Hepatotoxicity [1]; Liver", "result": "drug-induced liver injury reported"}, {"measurement": "Hepatotoxicity", "setting": "Hepatotoxicity [2]; Liver", "result": "drug-induced liver injury reported"}, {"measurement": "Hepatotoxicity", "setting": "Hepatotoxicity [3]; Liver", "result": "no drug-induced liver injury reported"}]}
{"molecule": "CCOC(=O)C1(c2ccccc2)CCN(C)CC1", "note": "[MEPERIDINE]", "values": [{"measurement": "Hepatotoxicity", "setting": "Hepatotoxicity [1]", "result": "no drug-induced liver injury reported"}, {"measurement": "Hepatotoxicity", "setting": "Hepatotoxicity [2]", "result": "drug-induced liver injury reported"}, {"measurement": "Hepatotoxicity", "setting": "Hepatotoxicity [3]", "result": "no drug-induced liver injury reported"}]}
{"molecule": "CCC1(c2ccccc2)C(=O)NCNC1=O", "note": "[PRIMIDONE]", "values": [{"measurement": "Hepatotoxicity", "setting": "Hepatotoxicity [1]", "result": "no drug-induced liver injury reported"}, {"measurement": "Hepatotoxicity", "setting": "Hepatotoxicity [2]", "result": "drug-induced liver injury reported"}, {"measurement": "Hepatotoxicity", "setting": "Hepatotoxicity [3]", "result": "drug-induced liver injury reported"}]}
{"molecule": "COc1cccc2c1C(=O)c1c(O)c3c(c(O)c1C2=O)C[C@@](O)(C(C)=O)C[C@@H]3O[C@H]1C[C@H](N)[C@H](O)[C@H](C)O1", "note": "[DAUNORUBICIN]", "values": [{"measurement": "Hepatotoxicity", "setting": "Hepatotoxicity [1]", "result": "drug-induced liver injury reported"}, {"measurement": "Hepatotoxicity", "setting": "Hepatotoxicity [2]", "result": "drug-induced liver injury reported"}, {"measurement": "Hepatotoxicity", "setting": "Hepatotoxicity [3]", "result": "no drug-induced liver injury reported"}]}
{"molecule": "OC(O)C(Cl)(Cl)Cl", "note": "[CHLORAL HYDRATE]", "values": [{"measurement": "Hepatotoxicity", "setting": "Hepatotoxicity [1]; Liver", "result": "drug-induced liver injury reported"}, {"measurement": "Hepatotoxicity", "setting": "Hepatotoxicity [2]; Liver", "result": "drug-induced liver injury reported"}, {"measurement": "Hepatotoxicity", "setting": "Hepatotoxicity [3]; Liver", "result": "no drug-induced liver injury reported"}]}
{"molecule": "Nc1ccc(S(=O)(=O)c2ccc(N)cc2)cc1", "note": "[DAPSONE]", "values": [{"measurement": "Hepatotoxicity", "setting": "Hepatotoxicity [1]; Liver", "result": "no drug-induced liver injury reported"}, {"measurement": "Hepatotoxicity", "setting": "Hepatotoxicity [2]; Liver", "result": "drug-induced liver injury reported"}, {"measurement": "Hepatotoxicity", "setting": "Hepatotoxicity [3]; Liver", "result": "no drug-induced liver injury reported"}]}
{"molecule": "O=C1NCCN1c1ncc([N+](=O)[O-])s1", "note": "[NIRIDAZOLE]", "values": [{"measurement": "Hepatotoxicity", "setting": "Hepatotoxicity [1]", "result": "drug-induced liver injury reported"}, {"measurement": "Hepatotoxicity", "setting": "Hepatotoxicity [2]", "result": "no drug-induced liver injury reported"}, {"measurement": "Hepatotoxicity", "setting": "Hepatotoxicity [3]", "result": "no drug-induced liver injury reported"}]}
{"molecule": "Cl.Cl.NCCc1c[nH]cn1", "note": "[HISTAMINE DIHYDROCHLORIDE]", "values": [{"measurement": "Hepatotoxicity", "setting": "Hepatotoxicity [1]; Liver", "result": "drug-induced liver injury reported"}, {"measurement": "Hepatotoxicity", "setting": "Hepatotoxicity [2]; Liver", "result": "no drug-induced liver injury reported"}, {"measurement": "Hepatotoxicity", "setting": "Hepatotoxicity [3]; Liver", "result": "no drug-induced liver injury reported"}]}
